Experimental data as given in ChEMBL document CHEMBL1141746, “Three new diterpenes from the marine soft coral Lobophytum crassum” (1998).
Activity calls are given as the source filed them. The calls are words filed in the database; no cut-off is given here.

Key:
[1] = tested on: Microbotryum violaceum; test: Antimicrobial activity against Ustilago violacea at 50 ug by agar plate diffusion assay; format: functional; conditions: read-out: IZ
[2] = target: Tyrosine-protein kinase Lck (Homo sapiens) (UniProt P06239); test: Inhibition of tyrosine kinase lckp56 by ELISA
[3] = target: Human immunodeficiency virus type 1 reverse transcriptase (Human immunodeficiency virus 1) (UniProt Q72547); test: Inhibition of HIV1 reverse transcriptase by ELISA
[4] = tested on: [Chlorella] fusca; test: Antimicrobial activity against Chlorella fusca at 50 ug by agar plate diffusion assay; format: functional; conditions: Scenedesmus fuscus; read-out: IZ

Chain of Tyrosine-protein kinase Lck (Homo sapiens) (P06239 2-509 limits assumed): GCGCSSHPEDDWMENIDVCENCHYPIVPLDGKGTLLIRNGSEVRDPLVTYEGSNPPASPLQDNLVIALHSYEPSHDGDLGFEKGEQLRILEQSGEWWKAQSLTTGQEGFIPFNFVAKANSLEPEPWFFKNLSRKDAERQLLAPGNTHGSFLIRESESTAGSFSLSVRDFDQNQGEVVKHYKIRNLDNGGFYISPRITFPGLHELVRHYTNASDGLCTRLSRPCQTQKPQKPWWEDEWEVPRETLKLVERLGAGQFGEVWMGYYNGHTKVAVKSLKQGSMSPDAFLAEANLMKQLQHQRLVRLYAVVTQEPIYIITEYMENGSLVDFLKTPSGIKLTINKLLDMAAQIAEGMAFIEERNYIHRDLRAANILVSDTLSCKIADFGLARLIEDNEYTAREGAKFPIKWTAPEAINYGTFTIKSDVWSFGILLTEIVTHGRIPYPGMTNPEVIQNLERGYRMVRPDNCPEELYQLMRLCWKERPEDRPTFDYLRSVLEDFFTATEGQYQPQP

Q: How did the zone of inhibition at 50 µg/disc [1] turn out when `COC(=O)C(C)/C1=C/C=C(\C)CC[C@H]2O[C@]2(C)CC/C=C(\C)CC1` (some centres not stated) was run?
A: Its zone of inhibition at 50 µg/disc is 1 mm.

Q: And the Activity [2]?
A: Its Activity is “inactive”.

Q: What about the Activity [3] of the same molecule?
A: The Activity was “inactive”.

Q: For `CC1=C2CC/C(C)=C/CC[C@@]3(C)O[C@H]3CC/C(C)=C/[C@@H]2OC1`, which zone of inhibition at 50 µg/disc [1] is on record?
A: The zone of inhibition at 50 µg/disc was 3 mm.

Q: What about the Activity [2] of the same molecule?
A: Its Activity is “inactive”.

Q: What about the Activity [3] of the same molecule?
A: The Activity was “inactive”.

Q: What about the zone of inhibition at 50 µg/disc [4] of the same molecule?
A: Its zone of inhibition at 50 µg/disc is 3 mm.
